In PubChem BioAssay AID1963959 (Molecular Pharmacology Branch, DTP, NCI, 2024):

System: T-47D spheroids with HUVEC/MSC, viability
Assay: Anticancer human tumor T-47D cell line growth inhibition [PI3K];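 also: spheroids exposed to agents for seven days before reading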;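 as to viability, T/C: percent of DMSO vehicle control luminescence so 100% = untreated growth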
Conditions: for IC50: curve of first compound; for viability, T/C: stronger effect = lower value; active = viability on the fitted dose curve at most 10% of control; inactive = the rest
Description: Combinatorial screen of targeted agents with the PI3K inhibitors inavolisib, alpelisib, duvelisib, and copanlisib in multi-cell type tumor spheroids
A high-throughput screen of multi-cell type tumor spheroids was designed to identify active combinations of targeted small molecules and PI3K pathway inhibitors. Complex spheroids include a stromal component modeled by human endothelial cells (HUVEC) and fibroblasts modeled by human mesenchymal stem cells (MSCs). The concentration ranges selected for each drug and investigational agent were based upon clinically achievable concentrations if the clinical Cmax of the agent was known.
Compounds. The drugs and investigational agents: inavolisib (NSC800729), alpelisib (NSC765974), duvelisib (NSC772469), copanlisib (NSC816437), ipatasertib (NSC767898), afuresertib (NSC778305), talazoparib (NSC767125), sapanisertib (NSC764658), selumetinib (NSC741078), tovorafenib (DAY101, NSC766906), vemurafenib (NSC761431), ravoxertinib (NSC781343), sotorasib (NSC818433), MRTX1133 (NSC 836407), abemaciclib (NSC 768073), palbociclib (NSC758247), venetoclax (NSC 766270), SY5609 (NSC837396), enzalutamide (NSC755605), and darolutamide (NSC825331), were obtained from the National Cancer Institute (NCI) Developmental Therapeutics Program Chemical Repository. The FDA-approved anticancer drug set is available from the NCI Developmental Therapeutics Program. […] The stock solutions were prepared in dimethyl sulfoxide (DMSO, Sigma-Aldrich, St. Louis, MO, cat. D2650) at 800-fold the tested concentration and stored at -70 degrees C prior to their use. All drugs and investigational agents were tested over a range starting from a high concentration at or near the clinical Cmax and decreasing in half-log increments. If the clinical Cmax for an agent had not been determined, the highest concentration tested was 10 microM.
Cell Culture. All cells were maintained in an incubator at 37 degrees C and 5% CO2 with 95% humidity. The PDC lines were cultured according to standard operating procedures established by the NCI PDMR (https://pdmr.cancer.gov/sops/default.htm). All PDCs were thawed and cultured in Matrigel-coated flasks prepared with a working solution of 1X Ham's F-12 nutrient mix, without supplementation (Invitrogen, Waltham, MA, cat. 11765054), 100 U/mL penicillin-streptomycin (Invitrogen, cat. 15140122), and 2.5% Matrigel (Corning Inc., Corning, NY, cat. 354248) for the first three passages. The 354836-022-R-J1-PDC, 475296-252-R-J1-PDC, and 997726-040-R-J2-PDC lines were cultured in 6A media, which includes advanced DMEM/F-12 (Thermo Fisher Scientific, cat. 12634028), 10 mM HEPES (Thermo Fisher Scientific, cat. 15630080), 1X GlutaMAX supplement (Thermo Fisher Scientific, cat. 35050061), 0.1 mg/mL primocin (InvivoGen, San Diego, CA, cat. ant-pm-2), 10% defined fetal bovine serum, heat inactivated (HyClone Laboratories Inc., Logan, UT, cat. SH30070.03HI), 50% L-WRN conditioned media (ATCC, cat. CRL-3276), 1.25 mM N-Acetyl-L-cysteine (Sigma-Aldrich, cat. A9165), 10 mM nicotinamide (Sigma-Aldrich, cat. N0636), 1X B-27 supplement (Thermo Fisher Scientific, cat. 17504044), 1X N-2 supplement (Thermo Fisher Scientific, cat. 17502048), and 10 microM Y-27632 dihydrochloride (Tocris Bioscience, Bristol, United Kingdom, cat. 1254). The 624824-186-R-J2-PDC line was cultured in 6C/Colon 1B media, which includes all 6A media components plus 50 ng/mL human EGF recombinant protein (Thermo Fisher Scientific, cat. PHG0311). […]

[1] = second compound 0.00316 µM, first compound 0.0316 µM
[2] = second compound 0.00316 µM, first compound 0.1 µM
[3] = second compound 0.01 µM, first compound 0.0316 µM
[4] = second compound 0.01 µM, first compound 0.1 µM
[5] = second compound 0.0316 µM, first compound 0.0316 µM
[6] = second compound 0.0316 µM, first compound 0.1 µM
[7] = second compound 0.1 µM, first compound 0.0316 µM
[8] = second compound 0.1 µM, first compound 0.1 µM
[9] = second compound 0.316 µM, first compound 0.0316 µM
[10] = second compound 0.316 µM, first compound 0.1 µM
[11] = second compound 1 µM, first compound 0.0316 µM
[12] = second compound 1 µM, first compound 0.1 µM

CC(=O)c1c(C)c2cnc(Nc3ccc(N4CCNCC4)cn3)nc2n(C2CCCC2)c1=O + COc1c(OCCCN2CCOCC2)ccc2c3n(c(=NC(=O)c4cnc(N)nc4)nc12)CCN3
active: viability, T/C (second compound 1 µM, first compound 0.000316 µM) 5.84% | viability, T/C (second compound 1 µM, first compound 0.001 µM) 7.18% | viability, T/C (second compound 1 µM, first compound 0.00316 µM) 7.6% | viability, T/C (second compound 1 µM, first compound 0.01 µM) 5.71% | viability, T/C [11] 7.91% | viability, T/C [12] 6.26%
> 100 nM: IC50 (second compound 0.00316 µM) | IC50 (second compound 0.01 µM)
< 0.316 nM: IC50 (second compound 0.1 µM) | IC50 (second compound 0.316 µM) | IC50 (second compound 1 µM)
39.7 nM: IC50 (second compound 0.0316 µM)
inactive: viability, T/C (second compound 0.00316 µM, first compound 0.000316 µM) 120% | viability, T/C (second compound 0.00316 µM, first compound 0.001 µM) 118% | viability, T/C (second compound 0.00316 µM, first compound 0.00316 µM) 95.3% | viability, T/C (second compound 0.00316 µM, first compound 0.01 µM) 95.6% | viability, T/C [1] 80.5% | viability, T/C [2] 85% | viability, T/C (second compound 0.01 µM, first compound 0.000316 µM) 89.3% | viability, T/C (second compound 0.01 µM, first compound 0.001 µM) 104% | viability, T/C (second compound 0.01 µM, first compound 0.00316 µM) 95.5% | viability, T/C (second compound 0.01 µM, first compound 0.01 µM) 83.4% | viability, T/C [3] 84.3% | viability, T/C [4] 74.2% | viability, T/C (second compound 0.0316 µM, first compound 0.000316 µM) 71.3% | viability, T/C (second compound 0.0316 µM, first compound 0.001 µM) 64.8% | viability, T/C (second compound 0.0316 µM, first compound 0.00316 µM) 74.2% | viability, T/C (second compound 0.0316 µM, first compound 0.01 µM) 68.3% | viability, T/C [5] 51.8% | viability, T/C [6] 42.7% | viability, T/C (second compound 0.1 µM, first compound 0.000316 µM) 35.3% | viability, T/C (second compound 0.1 µM, first compound 0.001 µM) 42.8% | viability, T/C (second compound 0.1 µM, first compound 0.00316 µM) 34% | viability, T/C (second compound 0.1 µM, first compound 0.01 µM) 32.9% | viability, T/C [7] 26.6% | viability, T/C [8] 27.1% | viability, T/C (second compound 0.316 µM, first compound 0.000316 µM) 14.5% | viability, T/C (second compound 0.316 µM, first compound 0.001 µM) 17.1% | viability, T/C (second compound 0.316 µM, first compound 0.00316 µM) 19.7% | viability, T/C (second compound 0.316 µM, first compound 0.01 µM) 13.2% | viability, T/C [9] 15% | viability, T/C [10] 13.6%

CC1(C)CCC(Nc2ncc(C(F)(F)F)c(-c3c[nH]c4c(P(C)(C)=O)c(C#N)ccc34)n2)CN1 (centres undefined) + CC(Nc1ccc2c(c1)OCCn1cc(N3C(=O)OCC3C(F)F)nc1-2)C(N)=O
4420 nM: IC50 (second compound 0.1 µM)
< 31.6 nM: IC50 (second compound 0.316 µM) | IC50 (second compound 1 µM)
5840 nM: IC50 (second compound 0.0316 µM)
inactive: viability, T/C [1] 66.4% | viability, T/C [2] 70% | viability, T/C (second compound 0.00316 µM, first compound 0.316 µM) 59.1% | viability, T/C (second compound 0.00316 µM, first compound 1 µM) 73.5% | viability, T/C (second compound 0.00316 µM, first compound 3.16 µM) 76.9% | viability, T/C (second compound 0.00316 µM, first compound 10 µM) 48.8% | viability, T/C [3] 72.3% | viability, T/C [4] 68.3% | viability, T/C (second compound 0.01 µM, first compound 0.316 µM) 67.5% | viability, T/C (second compound 0.01 µM, first compound 1 µM) 72.3% | viability, T/C (second compound 0.01 µM, first compound 3.16 µM) 82.4% | viability, T/C (second compound 0.01 µM, first compound 10 µM) 47.6% | viability, T/C [5] 65.4% | viability, T/C [6] 68.3% | viability, T/C (second compound 0.0316 µM, first compound 0.316 µM) 60.2% | viability, T/C (second compound 0.0316 µM, first compound 1 µM) 68.7% | viability, T/C (second compound 0.0316 µM, first compound 3.16 µM) 67% | viability, T/C (second compound 0.0316 µM, first compound 10 µM) 36.2% | viability, T/C [7] 62% | viability, T/C [8] 65.2% | viability, T/C (second compound 0.1 µM, first compound 0.316 µM) 46.3% | viability, T/C (second compound 0.1 µM, first compound 1 µM) 47.3% | viability, T/C (second compound 0.1 µM, first compound 3.16 µM) 61.4% | viability, T/C (second compound 0.1 µM, first compound 10 µM) 34.2% | viability, T/C [9] 53.1% | viability, T/C [10] 42.6% | viability, T/C (second compound 0.316 µM, first compound 0.316 µM) 37.8% | viability, T/C (second compound 0.316 µM, first compound 1 µM) 36.2% | viability, T/C (second compound 0.316 µM, first compound 3.16 µM) 40.4% | viability, T/C (second compound 0.316 µM, first compound 10 µM) 17.1% | viability, T/C [11] 40.8% | viability, T/C [12] 30.8% | viability, T/C (second compound 1 µM, first compound 0.316 µM) 29.7% | viability, T/C (second compound 1 µM, first compound 1 µM) 29.5% | viability, T/C (second compound 1 µM, first compound 3.16 µM) 26.4% | viability, T/C (second compound 1 µM, first compound 10 µM) 6.28%
> 10000 nM: IC50 (second compound 0.00316 µM) | IC50 (second compound 0.01 µM)
